From patent US9206198B2, “Inhibitors of the renal outer medullary potassium channel” (Merck Sharp & Dohme Corp., priority 2012, dated 2015)

Biological target: hROMK (hKir1.1) (Homo sapiens (Human), UniProt P48048)
Test: Thallium Flux Assay (ROMK channel functional thallium flux assay, FLIPR-Tetra)
Assay type: cell-based
Conditions: HEK293 cells stably expressing hROMK
Procedure: Cell Culture Conditions— HEK293 cells stably expressing hROMK (hKir1.1) were grown at 37° C. in a 10% CO2 humidified incubator in complete growth media: Dulbecco's Modified Eagle Medium supplemented with non-essential amino acids, Penicillin/Streptomycin/Glutamine, G418 and FBS. At >80% confluency, aspirate the media from the flask and rinse with 10 mL Calcium/Magnesium-free PBS. Add 5 mL of 1× trypsin (prepared in Ca/Mg Free PBS) to T-225 flask and return flask to 37° C./CO2 incubator for 2-3 minutes. To dislodge the cell, gently bang the side of the flask with your hand. Triturate the cells completely and then transfer the cells to 25 mL complete media. Centrifuge at 1,500 rpm for 6 min followed by resuspension in complete growth media and determine cell concentration. For typical re-seeding, 4E6 cells/T-225 flask will attain >80% confluency in 4 days. Under ideal growth conditions and appropriate tissue culture practices, this cell line is stable for 40-45 passages.
FluxOR Kit Components (Invitrogen F10017)
• FluxOR™ Reagent (Component A) • FluxOR™ Assay Buffer (Component B)—10× Concentrate • PowerLoad™ Concentrate (Component C)—100× Concentrate • Probenecid (Component D)—Lyophilized sample is kept at −20° C. Water soluble, 100×after solubilization in 1 mL water. Store at 4° C. • FluxOR™ Chloride-free Buffer (Component E)—5× Concentrate • Potassium sulfate (K2SO4) Concentrate (Component F)—125 mM in water. Store at 4° C. • Thallium sulfate (Tl2SO4) Concentrate (Component G)—50 mM in water. Store at 4° C. • DMSO (dimethyl sulfoxide, Component H)—1 mL (100%) Reagent Preparation: FluxOR Working Solutions • 1000× FluxOR™ Reagent: Reconstitute a vial of component A in 100 μl DMSO; Mix well; Store 10 μl aliquots at −20° C. • 1× FluxOR™ Assay Buffer: Dilute Component B 10-fold with water; Adjust pH to 7.4 with Hepes/NaOH; Filter and store at 4° C. • Probenecid/Assay Buffer: 100 mL of 1× FluxOR™ Assay Buffer; 1 mL of reconstituted component D; Store at 4° C. • Loading Buffer (per microplate): 10 μl 1000× FluxOR™ Reagent; 100 μl component C; 10 mL Probenecid/Assay Buffer • Compound Buffer (per microplate): 20 mL Probenecid/Assay Buffer; 0.3 mM ouabain (10 mM ouabain in water can be stored in amber bottle/aluminum foil at room temperature); Test compound • 1× FluxOR™ Chloride-Free Buffer: Prepare 1× working solution in water. Can be stored at room temperature • Stimulant Buffer (prepared at 5× final concentration in 1× FluxOR™ Chloride-Free Buffer): 7.5 mM Thallium sulfate and 0.75 mM Potassium sulfate (to give a final assay concentration of 3 mM Thallium 0.3 mM Potassium). Store at 4° C. when not in use. If kept sterile, this solution is good for months.
Assay Protocol—The ROMK channel functional thallium flux assay is performed in 384 wells, using the FLIPR-Tetra instrument. HEK-hKir1.1 cells are seeded in Poly-D-Lysine microplates and kept in a 37° C.-10% CO2 incubator overnight. On the day of the experiment, the growth media is replaced with the FluxOR™ reagent loading buffer and incubated, protected from light, at ambient temperature (23-25° C.) for 90 min. The loading buffer is replaced with assay buffer±test compound followed by 30 min incubation at ambient temperature, where the Thallium/Potassium stimulant is added to the microplate.
• 1. Seed HEK-hKir1.1 cells ([…] at 20,000 cells/well) in 384-well PDL coated Microplates • 2. Allow cells to adhere overnight in humidified 37° C./10% CO2 incubator • 3. Completely remove cell growth media from microplate and replace with 25 μl loading buffer • 4. Incubate Microplate at room temperature, protected form light, for 90 min • 5. Remove loading buffer and replace with 25 μl 1× Assay Buffer±test compound. • 6. Incubate microplate at room temperature, protected from light, for 30 min • 7. At FLIPR-Tetra 384: Add stimulant (Thallium/Potassium) solution to microplate and monitor fluorescence. Excitation=400 nm, Emission=460 & 580 nm. Collect data for 10 min.

hROMK (hKir1.1), sequence (P48048 whole entry): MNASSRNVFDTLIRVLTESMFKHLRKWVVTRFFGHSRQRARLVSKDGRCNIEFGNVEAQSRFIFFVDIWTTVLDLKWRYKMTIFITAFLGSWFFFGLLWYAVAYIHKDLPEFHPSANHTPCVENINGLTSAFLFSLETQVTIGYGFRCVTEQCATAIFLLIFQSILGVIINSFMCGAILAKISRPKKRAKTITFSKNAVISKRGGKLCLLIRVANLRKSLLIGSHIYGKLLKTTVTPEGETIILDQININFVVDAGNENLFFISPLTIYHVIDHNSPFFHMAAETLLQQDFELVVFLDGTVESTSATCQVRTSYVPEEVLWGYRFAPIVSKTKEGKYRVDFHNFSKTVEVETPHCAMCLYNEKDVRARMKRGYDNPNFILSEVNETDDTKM

Question: Which IC50 does the source give for `O=C1C=C(N2CCC3(CCN(CCc4ccc5c(c4)COC5=O)CC3)C2=O)CO1` [Example 3] here?
Answer: 290 nM

Question: With `Cc1c([C@@H](O)CN2CCC3(CCCN(C4=CC(=O)OC4)C3=O)CC2)ccc2c1COC2=O` [Example 23] as the compound, how does the IC50 read?
Answer: 20 nM

Question: Which IC50 does the source give for `Cc1c([C@@H](O)CN2CCC3(CC2)CCN(C2=C(Cl)C(=O)OC2)C3=O)ccc2c1COC2=O` [Example 25] here?
Answer: 10 nM

Question: How did the IC50 turn out when `CC1=C(N2CCC3(CCN(CC(O)c4ccc5c(c4F)COC5=O)CC3)C2=O)COC1=O` (single isomer, unassigned) [Example 81] was run?
Answer: 190 nM

Question: How did the IC50 turn out when `CC1=C(N2C(=O)C3(CCN(C[C@H](O)c4ccc5c(c4C)COC5=O)CC3)CC2C)COC1=O` (single isomer, unassigned) [Example 29] was run?
Answer: 70 nM

Question: With `CC1=C(N2C(=O)C3(CCN(C[C@H](O)c4ccc5c(c4C)COC5=O)CC3)CC2C2CC2)COC1=O` (stereo partly shown) [Example 70] as the compound, how does the IC50 read?
Answer: 340 nM

Question: For `CC1=C(N2CCC3(CCN(C(CO)Cc4ccc5c(c4C)COC5=O)CC3)C2=O)COC1` (single isomer, unassigned) [Example 84A], which IC50 is on record?
Answer: 60 nM

Question: How did the IC50 turn out when `CC1=C(N2CCC3(CCN(CC(NCC(F)F)c4ccc5c(c4C)COC5=O)CC3)C2=O)COC1=O` (stereo not shown) [Example 55] was run?
Answer: 250 nM

Question: Which IC50 does the source give for `CC1=C(N2CCC3(CCN(CC(O)c4ccc5c(c4Cl)COC5=O)CC3)C2=O)COC1=O` (single isomer, unassigned) [Example 78] here?
Answer: 270 nM

Question: For `CC1=C(N2CCC3(CC4CN(C)CC(C3)N4C[C@@H](O)c3ccc4c(c3C)COC4=O)C2=O)COC1=O` (stereo partly shown) [Example 46], which IC50 is on record?
Answer: 140 nM

Question: `CCc1c(C(O)CN2CCC3(CC2)CCN(C2=C(C)C(=O)OC2)C3=O)ccc2c1COC2=O` (single isomer, unassigned) [Example 74] was tested. Which IC50 did it give?
Answer: 200 nM

Question: How did the IC50 turn out when `CC1=C(N2CCC3(CCN(C(C)(C)C(O)c4ccc5c(c4C)COC5=O)CC3)C2=O)COC1=O` (single isomer, unassigned) [Example 85B] was run?
Answer: 10 nM

Question: Which IC50 does the source give for `CC1=C(N2CCC3(CC4CN(C)CC(C3)N4C[C@H](O)c3ccc4c(c3C)COC4=O)C2=O)COC1=O` (stereo partly shown) [Example 45] here?
Answer: 160 nM

Question: Which IC50 does the source give for `CO[C@@H](CN1CCC2(CC1)C[C@H](C)N(C1=CC(=O)OC1)C2=O)c1ccc2c(c1C)COC2=O` [Example 2] here?
Answer: 50 nM

Question: `CC1=C(N2CCC3(CCN(C[C@H](F)c4ccc5c(c4C)COC5=O)CC3)C2=O)COC1=O` [Example 47, 8-[(2R)-2-fluoro-2-(4-methyl-1-oxo-1,3-dihydro-2-benzofuran-5-yl)ethyl]-2-(4-methyl-5-oxo-2,5-dihydrofuran-3-yl)-2,8-diazaspiro[4.5]decan-1-one] was tested. Which IC50 did it give?
Answer: 40 nM

Question: How did the IC50 turn out when `Cc1c([C@H](O)CN2C3CCC2CC2(CC(C)N(C4=CC(=O)OC4)C2=O)C3)ccc2c1COC2=O` (single isomer, unassigned) [Example 42] was run?
Answer: 100 nM

Question: How did the IC50 turn out when `Cc1c([C@@H](O)CN2C3CCC2CC2(CC(C)N(C4=CC(=O)OC4)C2=O)C3)ccc2c1COC2=O` (stereo partly shown) [Example 39] was run?
Answer: 20 nM

Question: How did the IC50 turn out when `CC1=C(N2CCC3(CCN(C(C)(C)C(O)c4ccc5c(c4C)COC5=O)CC3)C2=O)COC1=O` (single isomer, unassigned) [Example 85A] was run?
Answer: 120 nM

Question: For `CNC(CN1CCC2(CC1)CCN(C1=C(C)C(=O)OC1)C2=O)c1ccc2c(c1C)COC2=O` (stereo not shown) [Example 60, 8-[2-(methylamino)-2-(4-methyl-1-oxo-1,3-dihydro-2-benzofuran-5-yl)ethyl]-2-(4-methyl-5-oxo-2,5-dihydrofuran-3-yl)-2,8-diazaspiro[4.5]decan-1-one], which IC50 is on record?
Answer: 100 nM

Question: How did the IC50 turn out when `CC1=C(N2CCC3(CCN(C[C@H](O)c4cc5c(cc4C)C(=O)OC5)CC3)C2=O)COC1=O` [Example 38] was run?
Answer: 20 nM

Question: Which IC50 does the source give for `Cc1c([C@@H](O)CN2CCC3(CC2)CCN(C2=C(C4CC4)C(=O)OC2)C3=O)ccc2c1COC2=O` [Example 31] here?
Answer: 40 nM

Question: Which IC50 does the source give for `Cc1c([C@@H](O)CN2CCC3(CC2)CC(C)N(C2=CC(=O)OC2)C3=O)ccc2c1COC2=O` (stereo partly drawn) [Example 6, 8-((R)-2-Hydroxy-2-(4-methyl-1-oxo-1,3-dihydroisobenzofuran-5-yl)ethyl)-3-methyl-2-(5-oxo-2,5-dihydrofuran-3-yl)-2,8-diazaspiro[4.5]decan-1-one] here?
Answer: 30 nM

Question: For `Cc1c([C@@H](O)CN2CCC3(CC2)C(=O)N(C2=CC(=O)OC2)c2ccccc23)ccc2c1COC2=O` [Example 65, 1′-[(2R)-2-hydroxy-2-(4-methyl-1-oxo-1,3-dihydro-2-benzofuran-5-yl)ethyl]-2-oxo-1-(5-oxo-2,5-dihydrofuran-3-yl)-1,2-dihydrospiro[indole-3,4′-piperidinium]], which IC50 is on record?
Answer: 40 nM

Question: How did the IC50 turn out when `Cc1c([C@@H](O)CN2C3CCC2CC2(CC(C)N(C4=CC(=O)OC4)C2=O)C3)ccc2c1COC2=O` (single isomer, unassigned) [Example 40] was run?
Answer: 20 nM

Question: For `CC1=C(N2CCC3(CCN(CCc4ccc5c(c4C)COC5=O)CC3)C2=O)COC1=O` [Example 1, 8-(2-(4-methyl-1-oxo-1,3-dihydroisobenzofuran-5-yl)ethyl)-2-(4-methyl-5-oxo-2,5-dihydrofuran-3-yl)-2,8-diazaspiro[4.5]decan-1-one], which IC50 is on record?
Answer: 10 nM

Question: For `Cc1c([C@H](O)CN2C3CCC2CC2(CC(C)N(C4=CC(=O)OC4)C2=O)C3)ccc2c1COC2=O` (stereo partly shown) [Example 41], which IC50 is on record?
Answer: 240 nM

Question: How did the IC50 turn out when `CO[C@@H](CN1CCC2(CC1)CCN(C1=C(C)C(=O)OC1)C2=O)c1ccc2c(c1C)COC2=O` [Example 49, 8-[(2R)-2-methoxy-2-(4-methyl-1-oxo-1,3-dihydro-2-benzofuran-5-yl)ethyl]-2-(4-methyl-5-oxo-2,5-dihydrofuran-3-yl)-1-oxo-2-aza-8-azoniaspiro[4.5]decane] was run?
Answer: 40 nM

Question: With `CC1=CC2(CCN(C[C@H](O)c3ccc4c(c3C)COC4=O)CC2)C(=O)N1C1=CC(=O)OC1` [Example 72] as the compound, how does the IC50 read?
Answer: 30 nM

Biological target: Kir1.1 (ROMK1) (Homo sapiens (Human), UniProt P48048)
Sequence (P48048 whole entry, species assumed): as the sequence (P48048 whole entry) above
Test: Electrophysiology Assay (whole cell voltage clamp, IonWorks Quattro)
Assay type: cell-based
Conditions: Chinese hamster ovary cells stably expressing Kir1.1; block during voltage step to 0 mV
Procedure: Block of Kir1.1 (ROMK1) currents was examined by whole cell voltage clamp (Hamill et. al. Pfluegers Archives 391:85-100 (1981)) using the IonWorks Quattro automated electrophysiology platform (Molecular Devices, Sunnyvale, Calif.). Chinese hamster ovary cells stably expressing Kir1.1 channels were maintained in T-75 flasks in cell culture media in a humidified 10% CO2 incubator at 37° C. Prior to an experiment, Kir1.1 expression was induced by overnight incubation with 1 mM sodium butyrate. On the day of the experiment, cells were dissociated with 2.5 mL of Versene (Invitrogen 15040-066) for approximately 6 min at 37° C. and suspended in 10 mL of bath solution containing (in mM): 150 NaCl, 10 KCl, 2.7 CaCl2, 0.5 MgCl2, 5 HEPES, pH 7.4. After centrifugation, the cell pellet was resuspended in approximately 4.0 mL of bath solution and placed in the IonWorks instrument. The intracellular solution consisted of (in mM): 80 K gluconate, 40 KCl, 20 KF, 3.2 MgCl2, 3 EGTA, 5 Hepes, pH 7.4. Electrical access to the cytoplasm was achieved by perforation in 0.13 mg/mL amphotericin B for 4 min. Amphotericin B (Sigma A-4888) was prepared as a 40 mg/mL solution in DMSO. Voltage protocols and current recordings were performed using the IonWorks HT software/hardware system. Currents were sampled at 1 kHz. No correction for liquid junction potentials was used. The test pulse, consisting of a 100 ms step to 0 mV from a holding potential of −70 mV, followed by a 100 ms voltage ramp from −70 mV to +70 mV, was applied before and after a 6 min compound incubation period. Test compounds were prepared by diluting DMSO stock solutions into the bath solution at 3× the final concentration and placed in the instrument in 96-well polypropylene plates. Current amplitudes were measured using the IonWorks software. To assess compound potency, the fractional block during the voltage step to 0 mV was calculated in Microsoft Excel (Microsoft, Redmond, Calif.), and dose-response curves were fitted with Igor Pro 4.0 (WaveMetrics, Lake Oswego, Oreg.). Normally, a control compound is included to support that the assay is giving consistent results compared to previous measurements, although the control is not required to obtain the results for the test compounds.

Question: `O=C1C=C(N2CCC3(CCN(CCc4ccc5c(c4)COC5=O)CC3)C2=O)CO1` [Example 3] was tested. Which IC50 did it give?
Answer: 70 nM

Question: How did the IC50 turn out when `Cc1c([C@@H](O)CN2CCC3(CCCN(C4=CC(=O)OC4)C3=O)CC2)ccc2c1COC2=O` [Example 23] was run?
Answer: 10 nM

Question: `Cc1c([C@@H](O)CN2CCC3(CC2)CCN(C2=C(Cl)C(=O)OC2)C3=O)ccc2c1COC2=O` [Example 25] was tested. Which IC50 did it give?
Answer: 10 nM
